Assay results as given in article PMC7374424, “Ion-Selective Carbon Nanotube Field-Effect Transistors for Monitoring Drug Effects on Nicotinic Acetylcholine Receptor Activation in Live Cells” (Sensors (Basel, Switzerland), 2020).
Like-named read-outs stand apart in the source and are kept apart here.

Key:
[1] = system: nicotinic acetylcholine receptor (nAChR), native in PC12 cells, subunits not specified; test: inhibition of […] nicotine-induced K+ release from PC12 cells, ion-selective CNT-FET; type: cell-based, Rattus norvegicus
[2] = system: nicotinic acetylcholine receptor (nAChR), native in PC12 cells, subunits not specified
[3] = system: nicotinic acetylcholine receptor (nAChR), native in PC12 cells, subunits not specified; test: agonist-induced K+ release from PC12 cells by ion-selective CNT-FET, Hill fit; type: cell-based, Rattus norvegicus

Compound | IC50 [1] [pIC50] | further results
CNC1(C)C2CCC(C2)C1(C)C (stereo not shown) [MH, mecamylamine] | 5.74 ± 0.54 | 
C[N+](C)(C)CCCCCC[N+](C)(C)C [HB, hexamethonium] | 4.58 ± 0.85 | 
